Results from the kinase profiling compilation of Christmann-Franck et al. (2016).
One block for each compound: values may come before it.

Experiments:
Test in all cases: Caliper, Mobility shift assay off-chip
MELK (human) = MELK (human) (UniProt Q14680)
EPHA7 (human) = EPHA7 (human) (UniProt Q15375)
GSK3A (human) = GSK3A (human) (UniProt P49840)
HIPK3 (human) = HIPK3 (human) (UniProt Q9H422)
RET (human) = RET (human) (UniProt P07949)
MST1R (human) = MST1R (human) (UniProt Q04912)
CAMK2G (human) = CAMK2G (human) (UniProt Q13555)
NEK11 (human) = NEK11 (human) (UniProt Q8NG66)
FER (human) = FER (human) (UniProt P16591)
CLK3 (human) = CLK3 (human) (UniProt P49761)
Sequence of CLK3 (human) (P49761 whole entry, looked up): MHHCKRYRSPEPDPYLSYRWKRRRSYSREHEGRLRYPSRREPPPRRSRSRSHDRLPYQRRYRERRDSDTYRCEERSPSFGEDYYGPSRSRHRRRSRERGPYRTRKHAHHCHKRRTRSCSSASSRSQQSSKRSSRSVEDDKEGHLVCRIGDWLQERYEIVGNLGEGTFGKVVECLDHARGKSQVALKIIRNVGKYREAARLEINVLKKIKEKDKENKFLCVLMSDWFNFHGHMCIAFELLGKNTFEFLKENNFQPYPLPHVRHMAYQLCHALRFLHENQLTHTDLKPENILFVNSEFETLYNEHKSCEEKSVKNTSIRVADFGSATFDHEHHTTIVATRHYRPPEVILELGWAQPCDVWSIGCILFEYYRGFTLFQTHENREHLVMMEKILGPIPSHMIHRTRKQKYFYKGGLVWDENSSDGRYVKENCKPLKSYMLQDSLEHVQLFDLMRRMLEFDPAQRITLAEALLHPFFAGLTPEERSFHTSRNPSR

RPS6KA6 KD1 KD2 (human) = RPS6KA6 KD1 KD2 (human) (UniProt Q9UK32)
GSG2 (human) = GSG2 (human) (UniProt Q8TF76)
DAPK2 (human) = DAPK2 (human) (UniProt Q9UIK4)
Sequence of DAPK2 (human) (Q9UIK4 whole entry, looked up): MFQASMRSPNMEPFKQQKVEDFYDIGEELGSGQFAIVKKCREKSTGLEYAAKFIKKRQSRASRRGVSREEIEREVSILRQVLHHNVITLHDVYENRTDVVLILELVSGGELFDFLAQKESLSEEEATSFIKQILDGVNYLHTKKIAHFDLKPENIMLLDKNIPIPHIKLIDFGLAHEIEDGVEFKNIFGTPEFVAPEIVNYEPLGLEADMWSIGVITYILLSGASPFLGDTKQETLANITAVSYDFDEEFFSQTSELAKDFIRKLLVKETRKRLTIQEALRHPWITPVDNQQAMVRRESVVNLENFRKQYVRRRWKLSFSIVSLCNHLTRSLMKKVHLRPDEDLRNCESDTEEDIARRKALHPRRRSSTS

NEK7 (human) = NEK7 (human) (UniProt Q8TDX7)
[1] = test system: KIT (human), P10721 [D816H]
Sequence of KIT (human), P10721 [D816H] (P10721 whole entry D816H, looked up): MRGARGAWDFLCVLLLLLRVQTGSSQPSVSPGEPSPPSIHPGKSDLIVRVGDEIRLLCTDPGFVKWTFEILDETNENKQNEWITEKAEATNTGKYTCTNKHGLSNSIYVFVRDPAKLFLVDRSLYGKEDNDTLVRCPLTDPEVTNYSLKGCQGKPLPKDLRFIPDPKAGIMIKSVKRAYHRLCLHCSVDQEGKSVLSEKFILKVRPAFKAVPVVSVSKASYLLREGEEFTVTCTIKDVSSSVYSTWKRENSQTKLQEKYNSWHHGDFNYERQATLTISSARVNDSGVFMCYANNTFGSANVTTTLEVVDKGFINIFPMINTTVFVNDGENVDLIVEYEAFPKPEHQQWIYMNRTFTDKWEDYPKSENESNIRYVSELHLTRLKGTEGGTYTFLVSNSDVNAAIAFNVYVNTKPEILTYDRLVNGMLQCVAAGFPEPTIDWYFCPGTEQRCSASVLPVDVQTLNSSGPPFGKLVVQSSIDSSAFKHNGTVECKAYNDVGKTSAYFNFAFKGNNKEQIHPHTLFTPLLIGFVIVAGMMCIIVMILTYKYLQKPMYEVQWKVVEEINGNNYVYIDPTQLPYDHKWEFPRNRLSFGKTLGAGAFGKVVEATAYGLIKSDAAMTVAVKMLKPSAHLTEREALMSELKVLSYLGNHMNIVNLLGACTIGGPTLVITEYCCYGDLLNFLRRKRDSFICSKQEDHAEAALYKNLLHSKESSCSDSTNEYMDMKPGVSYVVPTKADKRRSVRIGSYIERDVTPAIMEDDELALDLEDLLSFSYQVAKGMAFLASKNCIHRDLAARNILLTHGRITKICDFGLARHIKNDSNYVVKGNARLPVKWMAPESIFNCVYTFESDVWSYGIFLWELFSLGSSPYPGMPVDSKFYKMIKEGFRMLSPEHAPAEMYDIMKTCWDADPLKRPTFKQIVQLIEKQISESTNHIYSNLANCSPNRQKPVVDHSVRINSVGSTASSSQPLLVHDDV

ROS1 (human) = ROS1 (human) (UniProt P08922)
NTRK1 (human) = NTRK1 (human) (UniProt P04629)
SRPK2 (human) = SRPK2 (human) (UniProt P78362)
PAK2 (human) = PAK2 (human) (UniProt Q13177)
MYLK3 (human) = MYLK3 (human) (UniProt Q32MK0)
PIM3 (human) = PIM3 (human) (UniProt Q86V86)
STK10 (human) = STK10 (human) (UniProt O94804)
Sequence of STK10 (human) (O94804 whole entry, looked up): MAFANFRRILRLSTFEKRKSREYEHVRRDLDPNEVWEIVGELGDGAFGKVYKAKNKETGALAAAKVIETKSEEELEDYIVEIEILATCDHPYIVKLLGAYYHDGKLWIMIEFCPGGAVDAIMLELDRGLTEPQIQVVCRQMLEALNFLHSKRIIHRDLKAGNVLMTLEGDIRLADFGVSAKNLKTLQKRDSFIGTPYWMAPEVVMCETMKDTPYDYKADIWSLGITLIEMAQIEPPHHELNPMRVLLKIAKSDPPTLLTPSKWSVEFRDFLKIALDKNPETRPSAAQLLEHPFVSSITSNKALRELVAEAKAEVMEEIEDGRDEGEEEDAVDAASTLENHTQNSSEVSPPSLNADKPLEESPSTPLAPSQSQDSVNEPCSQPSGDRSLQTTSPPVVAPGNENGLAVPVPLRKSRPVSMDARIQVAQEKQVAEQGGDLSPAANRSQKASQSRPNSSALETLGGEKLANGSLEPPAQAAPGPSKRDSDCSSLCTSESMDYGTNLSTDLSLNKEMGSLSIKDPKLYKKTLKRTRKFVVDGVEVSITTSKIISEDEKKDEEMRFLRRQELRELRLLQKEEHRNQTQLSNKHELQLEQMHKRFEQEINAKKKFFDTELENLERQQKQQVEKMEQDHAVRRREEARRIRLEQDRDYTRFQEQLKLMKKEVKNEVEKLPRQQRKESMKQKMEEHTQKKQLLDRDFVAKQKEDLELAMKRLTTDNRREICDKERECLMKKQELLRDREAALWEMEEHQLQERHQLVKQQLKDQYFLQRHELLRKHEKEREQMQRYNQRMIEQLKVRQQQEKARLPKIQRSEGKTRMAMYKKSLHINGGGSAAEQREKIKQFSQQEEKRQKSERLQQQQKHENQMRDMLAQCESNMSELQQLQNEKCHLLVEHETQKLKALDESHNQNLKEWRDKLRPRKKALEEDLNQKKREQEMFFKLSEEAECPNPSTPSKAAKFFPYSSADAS

[2] = test system: FGFR1 (human), P11362 [V561M]
MAP2K6 (human) = MAP2K6 (human) (UniProt P52564)
PASK (human) = PASK (human) (UniProt Q96RG2)
PAK6 (human) = PAK6 (human) (UniProt Q9NQU5)
EPHA3 (human) = EPHA3 (human) (UniProt P29320)
[3] = test system: KIT (human), P10721 [V560G]
Sequence of KIT (human), P10721 [V560G] (P10721 whole entry V560G, looked up): as the sequence (P10721 whole entry D816H, looked up) above, with V560G, H816D counted along it

PAK3 (human) = PAK3 (human) (UniProt O75914)
WNK3 (human) = WNK3 (human) (UniProt Q9BYP7)
STK4 (human) = STK4 (human) (UniProt Q13043)
AXL (human) = AXL (human) (UniProt P30530)
STK33 (human) = STK33 (human) (UniProt Q9BYT3)
CSNK1G1 (human) = CSNK1G1 (human) (UniProt Q9HCP0)
PRKCB2 (human) = PRKCB2 (human) (UniProt P05771)
ERBB4 (human) = ERBB4 (human) (UniProt Q15303)
PDGFRA (human) = PDGFRA (human) (UniProt P16234)
CSF1R (human) = CSF1R (human) (UniProt P07333)
[4] = test system: EGFR (human), P00533 [T790M/L858R]
GSK3B (human) = GSK3B (human) (UniProt P49841)
NEK3 (human) = NEK3 (human) (UniProt P51956)

Sequence of MELK (human) (Q14680 whole entry, looked up): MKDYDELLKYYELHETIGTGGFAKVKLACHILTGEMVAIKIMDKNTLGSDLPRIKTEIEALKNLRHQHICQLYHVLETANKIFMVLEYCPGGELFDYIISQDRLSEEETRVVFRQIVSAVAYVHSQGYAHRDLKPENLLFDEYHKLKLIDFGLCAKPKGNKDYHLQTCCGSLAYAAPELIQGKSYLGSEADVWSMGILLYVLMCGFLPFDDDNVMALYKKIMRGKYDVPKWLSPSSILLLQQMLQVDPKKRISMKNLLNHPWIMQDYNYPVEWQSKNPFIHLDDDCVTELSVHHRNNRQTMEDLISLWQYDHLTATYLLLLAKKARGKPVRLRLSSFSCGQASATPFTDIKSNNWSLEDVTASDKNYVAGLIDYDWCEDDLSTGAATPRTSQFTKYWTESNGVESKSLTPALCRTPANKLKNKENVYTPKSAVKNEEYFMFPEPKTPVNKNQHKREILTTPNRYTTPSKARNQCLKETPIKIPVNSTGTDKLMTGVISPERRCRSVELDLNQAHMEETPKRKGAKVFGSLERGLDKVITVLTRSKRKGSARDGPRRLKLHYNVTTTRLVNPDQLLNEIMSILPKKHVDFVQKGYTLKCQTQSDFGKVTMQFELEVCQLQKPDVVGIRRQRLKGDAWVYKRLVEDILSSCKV
Sequence of HIPK3 (human) (Q9H422 whole entry, looked up): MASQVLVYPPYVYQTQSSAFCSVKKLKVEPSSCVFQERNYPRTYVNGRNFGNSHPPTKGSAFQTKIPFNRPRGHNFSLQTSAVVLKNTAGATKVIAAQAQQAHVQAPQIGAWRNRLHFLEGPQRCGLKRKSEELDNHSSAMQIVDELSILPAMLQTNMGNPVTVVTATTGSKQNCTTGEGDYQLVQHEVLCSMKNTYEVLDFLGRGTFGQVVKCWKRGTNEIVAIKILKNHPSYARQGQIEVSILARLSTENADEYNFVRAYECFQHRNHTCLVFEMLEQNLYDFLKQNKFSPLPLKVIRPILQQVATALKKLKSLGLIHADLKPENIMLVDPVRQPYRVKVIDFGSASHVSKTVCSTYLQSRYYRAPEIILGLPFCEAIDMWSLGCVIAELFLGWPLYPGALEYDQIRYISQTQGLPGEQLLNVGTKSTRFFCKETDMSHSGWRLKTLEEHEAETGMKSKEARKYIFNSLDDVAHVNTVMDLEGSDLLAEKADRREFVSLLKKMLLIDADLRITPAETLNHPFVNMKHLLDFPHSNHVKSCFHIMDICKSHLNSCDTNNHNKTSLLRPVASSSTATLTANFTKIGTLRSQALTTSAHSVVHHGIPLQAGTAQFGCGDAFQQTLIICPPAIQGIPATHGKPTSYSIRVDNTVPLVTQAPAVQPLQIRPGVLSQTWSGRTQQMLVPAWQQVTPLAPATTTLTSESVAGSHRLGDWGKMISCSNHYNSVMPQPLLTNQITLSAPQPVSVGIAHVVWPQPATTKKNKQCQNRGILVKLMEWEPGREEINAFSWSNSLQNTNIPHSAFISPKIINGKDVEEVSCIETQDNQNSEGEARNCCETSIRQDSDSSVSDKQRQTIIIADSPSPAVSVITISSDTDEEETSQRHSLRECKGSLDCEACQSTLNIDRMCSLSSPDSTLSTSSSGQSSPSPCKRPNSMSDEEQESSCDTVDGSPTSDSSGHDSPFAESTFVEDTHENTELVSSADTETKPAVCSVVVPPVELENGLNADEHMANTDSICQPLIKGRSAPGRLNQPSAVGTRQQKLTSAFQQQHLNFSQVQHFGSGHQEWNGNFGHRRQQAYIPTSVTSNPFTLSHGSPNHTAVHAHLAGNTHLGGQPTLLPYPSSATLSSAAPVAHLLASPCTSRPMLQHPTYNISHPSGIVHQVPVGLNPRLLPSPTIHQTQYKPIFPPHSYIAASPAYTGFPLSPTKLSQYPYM

residual activity (MELK (human); compound 10.0 µM): 6%
Structure (SMILES): CC(C)(C)c1nc2c3ccc(F)cc3c3c(=O)[nH]ccc3c2[nH]1

residual activity (EPHA7 (human); compound 1.0 µM): 131% | residual activity (GSK3A (human); compound 1.0 µM): 68% | residual activity (HIPK3 (human); compound 1.0 µM): 107% | residual activity (RET (human); compound 1.0 µM): 30% | residual activity (MST1R (human); compound 1.0 µM): 105% | residual activity (CAMK2G (human); compound 1.0 µM): 9% | residual activity (NEK11 (human); compound 1.0 µM): 117% | residual activity (FER (human); compound 1.0 µM): 129% | residual activity (CLK3 (human); compound 1.0 µM): 101% | residual activity (RPS6KA6 KD1 KD2 (human); compound 1.0 µM): 103% | residual activity (GSG2 (human); compound 1.0 µM): 87% | residual activity (DAPK2 (human); compound 1.0 µM): 100% | residual activity (NEK7 (human); compound 1.0 µM): 109% | residual activity ([1]; compound 1.0 µM): 14% | residual activity (ROS1 (human); compound 1.0 µM): 117% | residual activity (NTRK1 (human); compound 1.0 µM): 31% | residual activity (SRPK2 (human); compound 1.0 µM): 99% | residual activity (PAK2 (human); compound 1.0 µM): 111% | residual activity (MYLK3 (human); compound 1.0 µM): 107% | residual activity (PIM3 (human); compound 1.0 µM): 116% | residual activity (STK10 (human); compound 1.0 µM): 87% | residual activity (MELK (human); compound 1.0 µM): 53% | residual activity ([2]; compound 1.0 µM): 9% | residual activity (MAP2K6 (human); compound 1.0 µM): 108% | residual activity (PASK (human); compound 1.0 µM): 103% | residual activity (PAK6 (human); compound 1.0 µM): 145% | residual activity (EPHA3 (human); compound 1.0 µM): 114% | residual activity ([3]; compound 1.0 µM): 15% | residual activity (PAK3 (human); compound 1.0 µM): 106% | residual activity (WNK3 (human); compound 1.0 µM): 108% | residual activity (STK4 (human); compound 1.0 µM): 91% | residual activity (AXL (human); compound 1.0 µM): 93% | residual activity (STK33 (human); compound 1.0 µM): 82% | residual activity (CSNK1G1 (human); compound 1.0 µM): 112% | residual activity (PRKCB2 (human); compound 1.0 µM): 106% | residual activity (ERBB4 (human); compound 1.0 µM): 127% | residual activity (PDGFRA (human); compound 1.0 µM): 86% | residual activity (CSF1R (human); compound 1.0 µM): 86% | residual activity ([4]; compound 1.0 µM): 103% | residual activity (GSK3B (human); compound 1.0 µM): 86% | residual activity (NEK3 (human); compound 1.0 µM): 99%
Structure (SMILES): O=C(NCCCNc1nc(Nc2cccc(NC(=O)N3CCCC3)c2)ncc1I)c1cccs1

residual activity (EPHA7 (human); compound 10.0 µM): 118% | residual activity (GSK3A (human); compound 10.0 µM): 99% | residual activity (HIPK3 (human); compound 10.0 µM): 90% | residual activity (RET (human); compound 10.0 µM): 9% | residual activity (MST1R (human); compound 10.0 µM): 106% | residual activity (CAMK2G (human); compound 10.0 µM): 58% | residual activity (NEK11 (human); compound 10.0 µM): 51% | residual activity (FER (human); compound 10.0 µM): 14% | residual activity (CLK3 (human); compound 10.0 µM): 65% | residual activity (RPS6KA6 KD1 KD2 (human); compound 10.0 µM): 15% | residual activity (GSG2 (human); compound 10.0 µM): 0% | residual activity (DAPK2 (human); compound 10.0 µM): 85% | residual activity (NEK7 (human); compound 10.0 µM): 121% | residual activity ([1]; compound 10.0 µM): 22% | residual activity (ROS1 (human); compound 10.0 µM): 54% | residual activity (NTRK1 (human); compound 10.0 µM): 4% | residual activity (SRPK2 (human); compound 10.0 µM): 96% | residual activity (PAK2 (human); compound 10.0 µM): 98% | residual activity (MYLK3 (human); compound 10.0 µM): 29% | residual activity (PIM3 (human); compound 10.0 µM): 22% | residual activity (STK10 (human); compound 10.0 µM): 18% | residual activity (MELK (human); compound 10.0 µM): 13% | residual activity ([2]; compound 10.0 µM): 6% | residual activity (MAP2K6 (human); compound 10.0 µM): 33% | residual activity (PASK (human); compound 10.0 µM): 4% | residual activity (PAK6 (human); compound 10.0 µM): 112% | residual activity (EPHA3 (human); compound 10.0 µM): 86% | residual activity ([3]; compound 10.0 µM): 18% | residual activity (PAK3 (human); compound 10.0 µM): 38% | residual activity (WNK3 (human); compound 10.0 µM): 104% | residual activity (STK4 (human); compound 10.0 µM): 40% | residual activity (AXL (human); compound 10.0 µM): 3% | residual activity (STK33 (human); compound 10.0 µM): 58% | residual activity (CSNK1G1 (human); compound 10.0 µM): 51% | residual activity (PRKCB2 (human); compound 10.0 µM): 118% | residual activity (ERBB4 (human); compound 10.0 µM): 116% | residual activity (PDGFRA (human); compound 10.0 µM): 79% | residual activity (CSF1R (human); compound 10.0 µM): 17% | residual activity ([4]; compound 10.0 µM): 68% | residual activity (GSK3B (human); compound 10.0 µM): 118% | residual activity (NEK3 (human); compound 10.0 µM): 88%
Structure (SMILES): COc1ccc(C#Cc2ccc3ncc4ncn(-c5ccc(CCN)cc5)c4c3c2)cc1
